Results on 20 compounds are retold here after patent publication US9999619B2, “Piperidin-4-yl azetidine derivatives as JAK1 inhibitors” (Incyte Corporation, priority 2010, dated 2018).

Assay type in all cases: biochemical
For one experiment, the target named is Jak2 (a.a. 828-1132) (Homo sapiens (Human), UniProt O60674). In words: In vitro JAK kinase assay (HTRF, phosphorylation of a biotinylated peptide), JAK2. Conditions: measured at 1 mM ATP. In short, it runs like this: (§1)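 N-terminal His-tagged catalytic domains, baculovirus-expressed in insect cells, phosphorylated a biotinylated peptide for 1 hr at room temperature. EDTA stop was followed by SA-APC and Eu-Py20 antibody for 40 minutes, with phosphopeptide read by HTRF.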
(In TR-FRET formats the signal depends on donor and acceptor labels being close together.)

For experiment [1], the target named is human JAK1 (a.a. 837-1142). The experiment can be described thus: In vitro JAK kinase assay (HTRF, phosphorylation of a biotinylated peptide), JAK1. The following applies: ratio of JAK2 IC50 to JAK1 IC50, measured at 1 mM ATP. The method, boiled down:
as §1

Experiment [2] concerns the target human JAK1 (a.a. 837-1142) (Homo sapiens, UniProt P23458). Described as above. Conditions: measured at 1 mM ATP. In short, it runs like this: as §1

Structures are written as SMILES.

Jak2 (a.a. 828-1132), sequence (O60674 828-1132): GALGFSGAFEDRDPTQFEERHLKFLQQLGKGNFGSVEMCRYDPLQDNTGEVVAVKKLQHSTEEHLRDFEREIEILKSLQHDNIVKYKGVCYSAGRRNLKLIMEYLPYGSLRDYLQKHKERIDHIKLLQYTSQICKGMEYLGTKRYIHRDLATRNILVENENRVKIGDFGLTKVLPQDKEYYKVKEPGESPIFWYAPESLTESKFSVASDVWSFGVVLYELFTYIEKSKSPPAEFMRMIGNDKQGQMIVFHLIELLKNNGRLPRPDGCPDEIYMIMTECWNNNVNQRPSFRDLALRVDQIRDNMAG

The term IC50 denotes the concentration at which inhibition is half-maximal. On to `N#CCC1(n2cc(-c3ncnc4[nH]ccc34)cn2)CN(C2CCN(C(=O)C3CCCC3)CC2)C1` [Example 101, {1-[1-(cyclopentylcarbonyl)piperidin-4-yl]-3-[4-(7H-pyrrolo[2,3-d]pyrimidin-4-yl)-1H-pyrazol-1-yl]azetidin-3-yl}acetonitrile], for which the IC50 against Jak2 (a.a. 828-1132) was greater than 100 nM; in experiment [2], 5 to 20 nM. In experiment [1], the “IC50 Ratio JAK2/JAK1” value is 8.3.

`N#CCC1(n2cc(-c3ncnc4[nH]ccc34)cn2)CN(C2CCN(C(=O)C3CCC(c4ccc(Cl)cc4)CC3)CC2)C1` (stereo not drawn) [Example 105, {1-(1-{[4-(4-chlorophenyl)cyclohexyl]carbonyl}piperidin-4-yl)-3-[4-(7H-pyrrolo[2,3-d]pyrimidin-4-yl)-1H-pyrazol-1-yl]azetidin-3-yl}acetonitrile]: the IC50 against Jak2 (a.a. 828-1132) is greater than 100 nM; in experiment [2], 5 to 20 nM. Besides, the “IC50 Ratio JAK2/JAK1” value in experiment [1] came to 7.2.

`N#CCC1(n2cc(-c3ncnc4[nH]ccc34)cn2)CN(C2CCN(C(=O)Cc3ccccc3)CC2)C1` [Example 109, {1-[1-(phenylacetyl)piperidin-4-yl]-3-[4-(7H-pyrrolo[2,3-d]pyrimidin-4-yl)-1H-pyrazol-1-yl]azetidin-3-yl}acetonitrile]: the IC50 against Jak2 (a.a. 828-1132) lay within 10 to 50 nM; in experiment [2], 20 to 30 nM. In experiment [1], the “IC50 Ratio JAK2/JAK1” value is 1.1.

`N#CCC1(n2cc(-c3ncnc4[nH]ccc34)cn2)CN(C2CCN(C(=O)C3(c4ccccc4)CC3)CC2)C1` [Example 110, {1-{1-[(1-phenylcyclopropyl)carbonyl]piperidin-4-yl}-3-[4-(7H-pyrrolo[2,3-d]pyrimidin-4-yl)-1H-pyrazol-1-yl]azetidin-3-yl}acetonitrile]: the results for the IC50 (at Jak2 (a.a. 828-1132); in experiment [2]) were 10 to 50 nM and 5 to 20 nM, respectively. For the same compound, the “IC50 Ratio JAK2/JAK1” value in experiment [1] came to 1.6.

As to `N#CCC1(n2cc(-c3ncnc4[nH]ccc34)cn2)CN(C2CCN(C(=O)C3(c4ccc(Cl)cc4)CC3)CC2)C1` [Example 111, {1-(1-{[1-(4-chlorophenyl)cyclopropyl]carbonyl}piperidin-4-yl)-3-[4-(7H-pyrrolo[2,3-d]pyrimidin-4-yl)-1H-pyrazol-1-yl]azetidin-3-yl}acetonitrile], the IC50 was in the range of 10 to 50 nM against Jak2 (a.a. 828-1132) and 5 to 20 nM in experiment [2]. Further, in experiment [1], the “IC50 Ratio JAK2/JAK1” value was determined as 2.6.

As for `N#CCC1(n2cc(-c3ncnc4[nH]ccc34)cn2)CN(C2CCN(C(=O)Cc3c(Cl)cccc3Cl)CC2)C1` [Example 112, {1-{1-[(2,6-dichlorophenyl)acetyl]piperidin-4-yl}-3-[4-(7H-pyrrolo[2,3-d]pyrimidin-4-yl)-1H-pyrazol-1-yl]azetidin-3-yl}acetonitrile], the IC50 lay within 50 to 100 nM on Jak2 (a.a. 828-1132) and 5 to 20 nM in experiment [2]. For the same compound, in experiment [1], the “IC50 Ratio JAK2/JAK1” value came out at 8.2.

Turning to `Cc1cc(C)c(CC(=O)N2CCC(N3CC(CC#N)(n4cc(-c5ncnc6[nH]ccc56)cn4)C3)CC2)c(C)c1` [Example 113, {1-[1-(mesitylacetyl)piperidin-4-yl]-3-[4-(7H-pyrrolo[2,3-d]pyrimidin-4-yl)-1H-pyrazol-1-yl]azetidin-3-yl}acetonitrile], the IC50 against Jak2 (a.a. 828-1132) is 50 to 100 nM; in experiment [2], 20 to 30 nM. In experiment [1], the “IC50 Ratio JAK2/JAK1” value is given as 4.2.

Regarding `N#CCC1(n2cc(-c3ncnc4[nH]ccc34)cn2)CN(C2CCN(C(=O)c3ccc(-c4ccccc4)cc3)CC2)C1` [Example 114, {1-[1-(biphenyl-4-ylcarbonyl)piperidin-4-yl]-3-[4-(7H-pyrrolo[2,3-d]pyrimidin-4-yl)-1H-pyrazol-1-yl]azetidin-3-yl}acetonitrile], the IC50 fell in the range of 10 to 50 nM on Jak2 (a.a. 828-1132) and 5 to 20 nM in experiment [2]. In experiment [1], the “IC50 Ratio JAK2/JAK1” value was found to be 1.5.

For `N#CCC1(n2cc(-c3ncnc4[nH]ccc34)cn2)CN(C2CCN(C(=O)c3ccc(-c4ccc5cnccc5c4)c(F)c3)CC2)C1` [Example 115, {1-[1-(3-fluoro-4-isoquinolin-6-ylbenzoyl)piperidin-4-yl]-3-[4-(7H-pyrrolo[2,3-d]pyrimidin-4-yl)-1H-pyrazol-1-yl]azetidin-3-yl}acetonitrile], the values for the IC50 (against Jak2 (a.a. 828-1132); in experiment [2]) were 10 to 50 nM and no more than 5 nM, respectively. Further, the “IC50 Ratio JAK2/JAK1” value in experiment [1] amounted to 15.7.

Turning to `N#CCC1(n2cc(-c3ncnc4[nH]ccc34)cn2)CN(C2CCN(C(=O)c3c(F)cc(-c4cccnc4)cc3F)CC2)C1` [Example 116, {1-[1-(2,6-difluoro-4-pyridin-3-ylbenzoyl)piperidin-4-yl]-3-[4-(7H-pyrrolo[2,3-d]pyrimidin-4-yl)-1H-pyrazol-1-yl]azetidin-3-yl}acetonitrile], the IC50 is 10 to 50 nM at Jak2 (a.a. 828-1132) and no more than 5 nM in experiment [2]. The “IC50 Ratio JAK2/JAK1” value in experiment [1] is given as 10.6.

For `N#CCC1(n2cc(-c3ncnc4[nH]ccc34)cn2)CN(C2CCN(C(=O)c3ccc(-c4ccncc4)c(F)c3)CC2)C1` [Example 117, {1-[1-(3-fluoro-4-pyridin-4-ylbenzoyl)piperidin-4-yl]-3-[4-(7H-pyrrolo[2,3-d]pyrimidin-4-yl)-1H-pyrazol-1-yl]azetidin-3-yl}acetonitrile], the results for the IC50 (on Jak2 (a.a. 828-1132); in experiment [2]) were 10 to 50 nM and no more than 5 nM, respectively. In experiment [1], the “IC50 Ratio JAK2/JAK1” value came out at 10.0.

Turning to `N#CCC1(n2cc(-c3ncnc4[nH]ccc34)cn2)CN(C2CCN(C(=O)c3ccc(-c4ccc(C#N)cc4)c(F)c3)CC2)C1` [Example 118, 4′-[(4-{3-(cyanomethyl)-3-[4-(7H-pyrrolo[2,3-d]pyrimidin-4-yl)-1H-pyrazol-1-yl]azetidin-1-yl}piperidin-1-yl)carbonyl]-2′-fluorobiphenyl-4-carbonitrile], the IC50 on Jak2 (a.a. 828-1132) is 10 to 50 nM; in experiment [2] it was no more than 5 nM. The “IC50 Ratio JAK2/JAK1” value in experiment [1] is 21.5.

As for `N#CCC1(n2cc(-c3ncnc4[nH]ccc34)cn2)CN(C2CCN(C(=O)c3ccc(-c4ccc(C#N)c(F)c4)c(F)c3)CC2)C1` [Example 119, 4′-[(4-{3-(cyanomethyl)-3-[4-(7H-pyrrolo[2,3-d]pyrimidin-4-yl)-1H-pyrazol-1-yl]azetidin-1-yl}piperidin-1-yl)carbonyl]-2′,3-difluorobiphenyl-4-carbonitrile], the IC50 is 10 to 50 nM against Jak2 (a.a. 828-1132) and no more than 5 nM in experiment [2]. Moreover, the “IC50 Ratio JAK2/JAK1” value in experiment [1] stood at 14.0.

`N#CCC1(n2cc(-c3ncnc4[nH]ccc34)cn2)CN(C2CCN(C(=O)c3ccc(-c4cccnc4)c(F)c3)CC2)C1` [Example 123, {1-[1-(3-fluoro-4-pyridin-3-ylbenzoyl)piperidin-4-yl]-3-[4-(7H-pyrrolo[2,3-d]pyrimidin-4-yl)-1H-pyrazol-1-yl]azetidin-3-yl}acetonitrile]: the IC50 on Jak2 (a.a. 828-1132) was no more than 10 nM; in experiment [2] it was no more than 5 nM. The “IC50 Ratio JAK2/JAK1” value in experiment [1] was determined as 3.8.

For the compound `N#CCC1(n2cc(-c3ncnc4[nH]ccc34)cn2)CN(C2CCN(C(=O)c3ccc(-c4ccccc4C#N)c(F)c3)CC2)C1` [Example 124, 4′-[(4-{3-(cyanomethyl)-3-[4-(7H-pyrrolo[2,3-d]pyrimidin-4-yl)-1H-pyrazol-1-yl]azetidin-1-yl}piperidin-1-yl)carbonyl]-2′-fluorobiphenyl-2-carbonitrile], the half-maximal inhibitory concentration (IC50) against Jak2 (a.a. 828-1132) is no more than 10 nM; in experiment [2] it was no more than 5 nM. For the same compound, the “IC50 Ratio JAK2/JAK1” value in experiment [1] came to 8.4.

With `N#CCC1(n2cc(-c3ncnc4[nH]ccc34)cn2)CN(C2CCN(C(=O)c3ccc(-c4cccc(C#N)c4)c(F)c3)CC2)C1` [Example 125, 4′-[(4-{3-(cyanomethyl)-3-[4-(7H-pyrrolo[2,3-d]pyrimidin-4-yl)-1H-pyrazol-1-yl]azetidin-1-yl}piperidin-1-yl)carbonyl]-2′-fluorobiphenyl-3-carbonitrile], the IC50 against Jak2 (a.a. 828-1132) is 10 to 50 nM; in experiment [2], no more than 5 nM. Also, in experiment [1], the “IC50 Ratio JAK2/JAK1” value is 8.1.

`N#CCC1(n2cc(-c3ncnc4[nH]ccc34)cn2)CN(C2CCN(C(=O)c3ccc(-c4ccc(C#N)cc4)cc3)CC2)C1` [Example 126, 4′-[(4-{3-(cyanomethyl)-3-[4-(7H-pyrrolo[2,3-d]pyrimidin-4-yl)-1H-pyrazol-1-yl]azetidin-1-yl}piperidin-1-yl)carbonyl]biphenyl-4-carbonitrile]: the figures for the IC50 (at Jak2 (a.a. 828-1132); in experiment [2]) were 10 to 50 nM and no more than 5 nM, respectively. In addition, in experiment [1], the “IC50 Ratio JAK2/JAK1” value was 6.3.

Regarding `N#CCC1(n2cc(-c3ncnc4[nH]ccc34)cn2)CN(C2CCN(C(=O)c3ccc(-c4ccc(F)c(F)c4)c(F)c3)CC2)C1` [Example 127, (3-[4-(7H-pyrrolo[2,3-d]pyrimidin-4-yl)-1H-pyrazol-1-yl]-1-{1-[(2,3′,4′-trifluorobiphenyl-4-yl)carbonyl]piperidin-4-yl}azetidin-3-yl)acetonitrile], the IC50 against Jak2 (a.a. 828-1132) fell in the range of 10 to 50 nM; in experiment [2] it was 5 to 20 nM. The “IC50 Ratio JAK2/JAK1” value in experiment [1] worked out at 4.3.

For `N#CCC1(n2cc(-c3ncnc4[nH]ccc34)cn2)CN(C2CCN(C(=O)c3ccc(-c4cc(F)cc(C#N)c4)c(F)c3)CC2)C1` [Example 128, 4′-[(4-{3-(cyanomethyl)-3-[4-(7H-pyrrolo[2,3-d]pyrimidin-4-yl)-1H-pyrazol-1-yl]azetidin-1-yl}piperidin-1-yl)carbonyl]-2′,5-difluorobiphenyl-3-carbonitrile], the IC50 at Jak2 (a.a. 828-1132) was 10 to 50 nM; in experiment [2] it was no more than 5 nM. Besides, the “IC50 Ratio JAK2/JAK1” value in experiment [1] was 3.5.

Consider `N#CCC1(n2cc(-c3ncnc4[nH]ccc34)cn2)CN(C2CCN(C(=O)c3ccc(-c4cccc5ncccc45)c(F)c3)CC2)C1` [Example 129, {1-[1-(3-fluoro-4-quinolin-5-ylbenzoyl)piperidin-4-yl]-3-[4-(7H-pyrrolo[2,3-d]pyrimidin-4-yl)-1H-pyrazol-1-yl]azetidin-3-yl}acetonitrile], for which the IC50 on Jak2 (a.a. 828-1132) is no more than 10 nM; in experiment [2] it was no more than 5 nM. For the same compound, the “IC50 Ratio JAK2/JAK1” value in experiment [1] is listed as 7.9.
